This note sets out measurements from patent publication US11117930B2, “Peptide inhibitors of transcription factor aggregation” (ADRX, INC., priority 2017, dated 2021).

The nature of series [1]: Stability in human serum. The format is in vitro ADME. Particulars: CPP linked peptides, read-out: Stability in Human Serum (t1/2).
In series [2] the test system is OVCAR3. The format is cell-based. As to conditions: 24 h. As to the method: (§1) To render the inhibitors cell permeable, the peptides are fused to either a nine-residue poly L-Arg tag or a nine-residue poly D-Arg tag, through one of several three-residue linkers, either L-RPI, D-RPI, or D-GGG. Cancer cell lines, e.g. OVCAR-3, and Detroit 562 are treated with the peptide conjugates for 24 hours by the following method. OVCAR3 and Detroit-562 cells are grown in ATCC recommended growth media. The peptides were made in a 4 mM stock. Cells are plated in 96-well flat bottom clear plates at 7000 cells/well. After 24 hours, compounds are serially diluted in one-third [starting at 33 μM] or one-half [starting at 30 μM] dilutions in PrEGM media (Lonza). Growth media was removed from the wells and compound in PrEGM was added to 100 ul final volume. 24 hours post-compound addition cell metabolism was measured by addition of 20 μl MTS solution (Promega, cell-titer 96 aqueous). Absorbance was read at 490 nm following a 2 hour incubation and data was processed in Prism Graphpad to generate EC50 values.

Series [3] deals with Detroit-562. The format is cell-based. Particulars: 24 h. As to the method: as §1
Series [4] in a line: Protein binding in human serum. The format is in vitro ADME. Particulars: CPP linked peptides.

Like-named read-outs stand apart in the source and are kept apart here. Non-standard residues stand in square brackets, D forms with d. Residues, ends and D or L forms follow the SMILES beside them. No end group written: not given here.

As a reminder, the EC50 is the concentration giving half of the maximal effect. A high value points to weaker potency. A word on the fraction unbound: it is the share of the substance not bound to proteins or other matrix. Consider RRRRRRRRRRPIIRIRHYRP, for which the half-life in series [1] is 2.07 h. The EC50 in series [2] and in series [3] was 7 µM throughout. Further, the free fraction (fraction unbound) in series [4] is 0.19.

On to `CC[C@H](C)[C@H](NC(=O)[C@@H]1CCCN1C(=O)[C@H](CCCNC(=N)N)NC(=O)[C@H](CCCNC(=N)N)NC(=O)[C@H](CCCNC(=N)N)NC(=O)[C@H](CCCNC(=N)N)NC(=O)[C@H](CCCNC(=N)N)NC(=O)[C@H](CCCNC(=N)N)NC(=O)[C@H](CCCNC(=N)N)NC(=O)[C@H](CCCNC(=N)N)NC(=O)[C@H](CCCNC(=N)N)NC(=O)[C@@H](N)CCCNC(=N)N)C(=O)N[C@H](CCCNC(=N)N)C(=O)N[C@H](Cc1ccccc1)C(=O)N[C@H](Cc1ccc(O)cc1)C(=O)N[C@H](Cc1ccc(O)cc1)C(=O)N[C@H](Cc1c[nH]cn1)C(=O)N[C@H](CCCNC(=N)N)C(=O)N[C@H](CCCNC(=N)N)C(=O)O` [RRRRRRRRRRPIrfyyhrr] (H-RRRRRRRRRRPI[dR][dF][dY][dY][dH][dR][dR]-OH; N-terminus and C-terminus assumed), for which the half-life in series [1] is 0.95 h. The EC50 in series [2] was 16 µM; in series [3], 9 µM. This molecule yielded a fraction unbound in series [4] of 0.09.

For the molecule `CC[C@@H](C)[C@@H](NC(=O)[C@H]1CCCN1C(=O)[C@@H](CCCNC(=N)N)NC(=O)[C@@H](CCCNC(=N)N)NC(=O)[C@@H](CCCNC(=N)N)NC(=O)[C@@H](CCCNC(=N)N)NC(=O)[C@@H](CCCNC(=N)N)NC(=O)[C@@H](CCCNC(=N)N)NC(=O)[C@@H](CCCNC(=N)N)NC(=O)[C@@H](CCCNC(=N)N)NC(=O)[C@@H](CCCNC(=N)N)NC(=O)[C@H](N)CCCNC(=N)N)C(=O)N[C@H](Cc1ccc(O)cc1)C(=O)N[C@H](CCC(N)=O)C(=O)N[C@H](Cc1c[nH]c2ccccc12)C(=O)N[C@H](Cc1ccc(O)cc1)C(=O)N[C@H](CCCNC(=N)N)C(=O)N[C@H](Cc1c[nH]c2ccccc12)C(=O)N[C@H](CCC(N)=O)C(=O)O` [rrrrrrrrrrpiyqwyrwq] (H-[dR][dR][dR][dR][dR][dR][dR][dR][dR][dR][dP][dI][dY][dQ][dW][dY][dR][dW][dQ]-OH), the half-life in series [1] (cells given in hr) is greater than 24 h. In addition, the results for the 50% effective concentration (EC50) in series [2] and in series [3] were 6 µM and 5 µM, respectively. For the same molecule, in series [4], the fraction unbound is 0.01.

Turning to `CC[C@@H](C)[C@@H](NC(=O)[C@H]1CCCN1C(=O)[C@@H](CCCNC(=N)N)NC(=O)[C@@H](CCCNC(=N)N)NC(=O)[C@@H](CCCNC(=N)N)NC(=O)[C@@H](CCCNC(=N)N)NC(=O)[C@@H](CCCNC(=N)N)NC(=O)[C@@H](CCCNC(=N)N)NC(=O)[C@@H](CCCNC(=N)N)NC(=O)[C@@H](CCCNC(=N)N)NC(=O)[C@@H](CCCNC(=N)N)NC(=O)[C@H](N)CCCNC(=N)N)C(=O)N[C@H](Cc1c[nH]cn1)C(=O)N[C@H](CC(C)C)C(=O)N[C@H](CCCNC(=N)N)C(=O)N[C@@H](C(=O)N[C@H](Cc1c[nH]c2ccccc12)C(=O)N[C@H](CCCNC(=N)N)C(=O)N[C@H](CC(N)=O)C(=O)O)[C@H](C)CC` [rrrrrrrrrrpihlriwrn] (H-[dR][dR][dR][dR][dR][dR][dR][dR][dR][dR][dP][dI][dH][dL][dR][dI][dW][dR][dN]-OH; N-terminus and C-terminus assumed), the half-life in series [1] (cells given in hr) is greater than 24 h. In addition, the EC50 in series [2] and in series [3] was 4 µM each time. In series [4], this molecule showed a fraction unbound of 0.05.

For `CC[C@@H](C)[C@@H](NC(=O)[C@H]1CCCN1C(=O)[C@@H](CCCNC(=N)N)NC(=O)[C@@H](CCCNC(=N)N)NC(=O)[C@@H](CCCNC(=N)N)NC(=O)[C@@H](CCCNC(=N)N)NC(=O)[C@@H](CCCNC(=N)N)NC(=O)[C@@H](CCCNC(=N)N)NC(=O)[C@@H](CCCNC(=N)N)NC(=O)[C@@H](CCCNC(=N)N)NC(=O)[C@@H](CCCNC(=N)N)NC(=O)[C@H](N)CCCNC(=N)N)C(=O)N[C@H](Cc1c[nH]cn1)C(=O)N[C@H](CCC(N)=O)C(=O)N[C@H](CCCNC(=N)N)C(=O)N[C@H](CCC(N)=O)C(=O)N[C@H](Cc1ccc(O)cc1)C(=O)N[C@H](CCC(N)=O)C(=O)N[C@H](CCCNC(=N)N)C(=O)O` [rrrrrrrrrrpihqrqyqr] (H-[dR][dR][dR][dR][dR][dR][dR][dR][dR][dR][dP][dI][dH][dQ][dR][dQ][dY][dQ][dR]-OH; N-terminus and C-terminus assumed), the half-life in series [1] (cells given in hr) is greater than 24 h. The results for the 50% effective concentration (EC50) in series [2] and in series [3] were 27 µM and 35 µM, respectively. The molecule also gave a fraction unbound in series [4] of 0.88.

With `CC[C@@H](C)[C@@H](NC(=O)[C@H]1CCCN1C(=O)[C@@H](CCCNC(=N)N)NC(=O)[C@@H](CCCNC(=N)N)NC(=O)[C@@H](CCCNC(=N)N)NC(=O)[C@@H](CCCNC(=N)N)NC(=O)[C@@H](CCCNC(=N)N)NC(=O)[C@@H](CCCNC(=N)N)NC(=O)[C@@H](CCCNC(=N)N)NC(=O)[C@@H](CCCNC(=N)N)NC(=O)[C@@H](CCCNC(=N)N)NC(=O)[C@H](N)CCCNC(=N)N)C(=O)N[C@H](CCCCN)C(=O)N[C@H](Cc1ccccc1)C(=O)N[C@H](CCCNC(=N)N)C(=O)N[C@H](Cc1ccccc1)C(=O)N[C@H](Cc1ccc(O)cc1)C(=O)N[C@H](Cc1c[nH]cn1)C(=O)N[C@H](CCCNC(=N)N)C(=O)O` [rrrrrrrrrrpikfrfyhr] (H-[dR][dR][dR][dR][dR][dR][dR][dR][dR][dR][dP][dI][dK][dF][dR][dF][dY][dH][dR]-OH), the half-life in series [1] (cells given in hr) was greater than 24 h. Further, the values for the EC50 in series [2] and in series [3] were 4 µM and 5 µM, respectively. The same molecule gave a fraction unbound in series [4] of 0.14.

Take “RRRRRRRRRRPIIRIRHYR [RRRRRRRRRRPIIRIRHYR]”: the half-life in series [1] came out at 0.5 h. Besides, the EC50 in series [2] and in series [3] was 6 µM throughout. Also, the fraction unbound in series [4] was 0.16.

Take PRRRRRRRRRRPITRIRFYRP: the half-life in series [1] worked out at 1.72 h. The EC50 is 8 µM in series [2] and 9 µM in series [3]. The fraction unbound in series [4] is 0.11.

With `CC[C@H](C)[C@H](NC(=O)[C@@H]1CCCN1C(=O)[C@H](CCCNC(=N)N)NC(=O)[C@H](CCCNC(=N)N)NC(=O)[C@H](CCCNC(=N)N)NC(=O)[C@H](CCCNC(=N)N)NC(=O)[C@H](CCCNC(=N)N)NC(=O)[C@H](CCCNC(=N)N)NC(=O)[C@H](CCCNC(=N)N)NC(=O)[C@H](CCCNC(=N)N)NC(=O)[C@H](CCCNC(=N)N)NC(=O)[C@@H](N)CCCNC(=N)N)C(=O)N[C@H](CCC(N)=O)C(=O)N[C@H](CCC(N)=O)C(=O)N[C@H](CCCNC(=N)N)C(=O)N[C@H](Cc1ccc(O)cc1)C(=O)N[C@H](Cc1ccc(O)cc1)C(=O)N[C@H](Cc1c[nH]c2ccccc12)C(=O)N[C@H](CCCNC(=N)N)C(=O)O` [RRRRRRRRRRPIqqryywr] (H-RRRRRRRRRRPI[dQ][dQ][dR][dY][dY][dW][dR]-OH; N-terminus and C-terminus assumed), the half-life in series [1] turned out to be 10 h. For the same molecule, the EC50 in series [2] was found to be 22 µM; in series [3] it was 12 µM. The same molecule showed a fraction unbound in series [4] of 0.18.

Take PRRRRRRRRRRPIWTIKLWHP: the concentration giving a half-maximal response (EC50) in series [2] stood at 4 µM; in series [3], 6 µM.
